Experimental data reported in PMC4482062 (Nucleic Acids Research, 2015).
Several values for one entry are separate records, joined by “and”; a condition that tells them apart may be missing. Equal entries are not always repeated. Where two headings read alike, the source gives them in different places.

B1: CmoB carboxymethyl transferase (enzyme, Escherichia coli (BL21 genomic DNA))
chain: MIDFGNFYSLIAKNHLSHWLETLPAQIANWQREQQHGLFKQWSNAVEFLPEIKPYRLDLLHSVTAESEEPLSAGQIKRIETLMRNLMPWRKGPFSLYGVNIDTEWRSDWKWDRVLPHLSDLTGRTILDVGCGSGYHMWRMIGAGAHLAVGIDPTQLFLCQFEAVRKLLGNDQRAHLLPLGIEQLPALKAFDTVFSMGVLYHRRSPLEHLWQLKDQLVNEGELVLETLVIDGDENTVLVPGDRYAQMRNVYFIPSALALKNWLKKCGFVDIRIADVSVTTTEEQRRTEWMVTESLADFLDPHDPGKTVEGYPAPKRAVLIARKP
notes: CmoB of Escherichia coli, cmoB gene amplified from genomic DNA of E. coli BL21 and cloned into LIC-pET30a; calculated monomer mass 37.01 kD; 319-323 C-alphas aligned per protomer in the structures; A selenomethionine-substituted form (made in E. coli B834, purified the same way) gave the experimental phases; also called wild-type CmoB; source: E. coli BL21 (DE3), purified (Ni-agarose, thrombin …)

Key:
[1] = set-up: method as in PMID 10858319; settings: in water; cited from earlier work
[2] = target: T1, wild-type CmoB (Escherichia coli, UniProt P76291); experiment: Isothermal titration calorimetry, wild-type CmoB; type: binding; settings: for K (binding constant): single-site model
T1 construct: vector LIC-pET30a) (cleaved yes); made in house; host or cells: Escherichia coli BL21 (DE3)
Method: (§1) CmoB was extensively dialyzed for 24 h against binding buffer (20-mM HEPES, pH 7.5) using a dialysis cassette with 10-kDa MWCO (Pierce). Lyophilized Cx-SAM was dissolved in the binding buffer at a final concentration of 1.3 mM. SAM was purchased from Sigma and dissolved in binding buffer at a final concentration of 10 mM. Prior to use, all titration samples were centrifuged for 20 min at 4°C. Isothermal titration calorimetry (ITC) experiments were performed at 15°C using an auto-ITC200 (MicroCal, LLC, Northhampton, MA, USA) in which the reaction cell (202.8 μl) containing CmoB (50 μM and 370 μM for Cx-SAM and SAM, respectively) was titrated with 40 × 1-μl injections of 1.3-mM Cx-SAM or 6.7-mM SAM with an equilibration time of 180 s. Raw injection traces were integrated over time, normalized per mol of ligand injected and corrected for the heat of dilution obtained from the plateau of a titration curve. Titration data were analyzed using a single-site model in Origin (version X) and Igor Pro 5/6. […] Based on the chemical synthesis, the Cx-SAM utilized in the binding assay is a racemic mixture, of which only the S-isomer is capable of acting as a substrate/ligand for CmoB. Therefore, the stoichiometry was fixed at 1:1 and the activity of the ligand was introduced as a fitting parameter for Cx-SAM.

[3] = target: T2, CmoB Y200A mutant (Escherichia coli, UniProt P76291, Y200A); experiment: Isothermal titration calorimetry, Y200A mutant CmoB; type: binding; settings: for K (binding constant): 15°C, single-site model; for ΔG°: ΔG° = −RT lnK
T2 construct: vector LIC-pET30a) (cleaved yes); made in house; host or cells: Escherichia coli BL21 (DE3)
T2 sequence (P76291 whole entry Y200A): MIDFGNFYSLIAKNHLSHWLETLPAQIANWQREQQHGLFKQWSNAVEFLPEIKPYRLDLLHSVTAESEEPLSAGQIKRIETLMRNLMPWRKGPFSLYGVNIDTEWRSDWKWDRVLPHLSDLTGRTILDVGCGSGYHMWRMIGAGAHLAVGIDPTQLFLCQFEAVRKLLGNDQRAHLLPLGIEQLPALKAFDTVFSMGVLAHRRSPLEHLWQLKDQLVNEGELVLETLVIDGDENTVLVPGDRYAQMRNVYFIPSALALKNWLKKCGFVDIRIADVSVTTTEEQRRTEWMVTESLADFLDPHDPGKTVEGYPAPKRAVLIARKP
Method: as §1

[4] = target: T3, CmoB K91A mutant (Escherichia coli, UniProt P76291, K91A); experiment: Isothermal titration calorimetry, K91A mutant CmoB; type: binding; settings: for K (binding constant): single-site model; for ΔG°: ΔG° = −RT lnK; for ΔS°: ΔS° = (ΔH°−ΔG°)/T
T3 construct: vector LIC-pET30a) (cleaved yes); made in house; host or cells: Escherichia coli BL21 (DE3)
T3 sequence (P76291 whole entry K91A): as the sequence (P76291 whole entry Y200A) above, with K91A, A200Y counted along it
Method: as §1
The titration curve was analyzed using macroscopic binding constants and enthalpies describing binding of n-molecules of Cx-SAM to tetrameric mutant CmoB. Initially, the titration curve was analyzed with all possible values of n (=1~4). […] Therefore, the titration curve was analyzed using three sets of binding constants and enthalpies (Supplementary Table 2). The fitted values of the macroscopic binding constants were compared to those expected for a case of non-cooperative binding. For both cooperative and non-cooperative binding, K1 is given by 4Ksite where 4 accounts for the number of ligand binding sites in teterameric CmoB (i.e., statistical factor) and Ksite describes the “intrinsic” affinity of each site. Then, Ksite=3.6x10^4 M^-1. The fitted value of K2 is ~ 8.4-fold higher than that calculated for the case of non-cooperative binding (6Ksite^2=7.7x10^9 M^-2), indicating positive cooperativity involved in binding of the second Cx-SAM. Since the population of K91A with three Cx-SAMs bound is negligible, binding of the third Cx-SAM is deduced to be negatively cooperative.
A possible molecular explanation for such heterogeneous cooperativity involved in the interaction between K91A and Cx-SAM is the presence of (at least) two different types of interface between the subunits in tetrameric K91A which is consistent with the structural model of the CmoB tetramer. In this model (Supplementary Figure 9), the four ligand binding sites are initially equivalent, but binding of the first ligand to any of these four sites differentially affects (increases and decreases) the affinities of the neighboring sites for the second ligand through the different subunit interfaces. This model is a variation of the classical “square” model used in the analysis of the interaction between hemoglobin and oxygen(2) and provides a molecular description of the fitted macroscopic binding constants in terms of the intrinsic affinity (Ksite) and two types of cooperativity (ω+ and ω-): K1=4Ksite; K2=2Ksite^2(1+ω++ω-); K4=Ksite^4(ω+ω-)^2. Then, Ksite=3.6x10^4 M^-1, ω+=23.8, and ω-=0.4. The value of ω is equivalent to a fold-change in the Cx-SAM affinity of a binding site in tetrameric K91A when its neighboring site is already occupied by Cx-SAM.
^aIn this model, the interaction is described by a set of binding events where n-molecules of Cx-SAM bind tetrameric CmoB (K91A) with the corresponding binding constants (Kn) and enthalpies (∆Hn°). Initially, the titration curve was analyzed by this model including all possible values of n (=1~4). […] Therefore, the titration curve was analyzed using three sets of binding constants and enthalpies.

[5] = target: T4, CmoB R315A mutant (Escherichia coli, UniProt P76291, R315A); experiment: Isothermal titration calorimetry, R315A mutant CmoB; type: binding; settings: for K (binding constant) / ΔH°: ITC; for K (binding constant): 15°C, single-site model; for K (binding constant) / ΔH° / ΔG° / ΔS°: R315A; for ΔG°: ΔG° = −RT lnK; for ΔS°: ΔS° = (ΔH°−ΔG°)/T
T4 construct: vector LIC-pET30a) (cleaved yes); made in house; host or cells: Escherichia coli BL21 (DE3)
T4 sequence (P76291 whole entry R315A): as the sequence (P76291 whole entry Y200A) above, with A200Y, R315A counted along it
Method: as §1

[6] = target: T5, CmoB (Escherichia coli, UniProt P76291); experiment: Time course of SAM-dependent mo5U modification ([14CH3]-SAM), competition with Cx-SAM; type: biochemical; settings: 10-μM Cx-SAM, 140 μM [14CH3]-SAM, 90 min
T5 construct: vector LIC-pET30a) (cleaved yes); made in house; host or cells: Escherichia coli BL21 (DE3)
Method: The assay was initiated by mixing 10-mM Tris (pH 8.0), 4-mM MgCl2, 140-μM [^14CH3]-SAM (Perkin Elmer), 100 μg of total tRNA prepared from cmoB-deficient cells and 2-μM CmoB in 50 μl. In competition assays to measure the effect of Cx-SAM on methylation, 10-μM Cx-SAM was added to the above mixture. […] RNA was washed with 0.2-M ammonium acetate (pH 6.0) using an MWCO 10-kDa filter by centrifugation. This washing step was repeated two more times to remove unreacted ^14C-SAM. RNA was then spotted on a DE81 filter (GE) and air-dried for 20 min. Images of the radioactive tRNA were recorded on a phosphorimaging plate (Molecular Dynamics) for 2 days and analyzed using a Molecular Dynamics Storm 860 PhosphorImager System with ImageQuant software.

[7] = target: T1, wild-type CmoB; experiment: In vitro LC-MS-based alkyl transfer assay, wild-type CmoB; type: biochemical
Method: (§2) The assay solution for SAM-dependent mo5U formation contained 10-mM Tris-HCl (pH 8.0), 4-mM MgCl2, 0.2-mM SAM and 20–25 μg (∼20 μM) of total tRNA prepared from cmoB-mutant E. coli cells in 50 μl. Reaction conditions for Cx-SAM-dependent cmo5U formation assay were identical, with the exception that10-μM Cx-SAM was used in place of SAM. Assays were initiated by addition of 0.1–2-μM CmoB to the above mixtures and subsequently incubated at the room temperature. The reaction was terminated by the addition of 0.1-mg/ml P1 nuclease, followed by incubation at 60°C for at least 1 h. […] Hydrolyzed nucleotides were directly applied to HPLC without further processing for LC-MS analysis as described above.

[8] = target: T3, CmoB K91A mutant; experiment: In vitro LC-MS-based alkyl transfer assay, K91A CmoB; type: biochemical; settings: Cx-SAM as alkyl donor, after 24 h
Method: as §2

[9] = target: the molecule itself; experiment: AUC; sedimentation velocity, g(s*) distribution fitted to a single-species model; with or without Cx-SAM or SAM

Row | Molecule | ΔH° ([2]; ITC) [kcal/mol] | K (binding constant) ([2]; ITC, 15°C) | TΔS° ([2]; ITC, text) [kcal/mol] | ΔG° ([2]; ITC, text) [kcal/mol] | ΔH° ([2]; ITC, text) [kcal/mol] | ΔS° ([2]; ITC, text) [cal·mol^−1·deg^−1] | ΔG° ([2]; ΔG° = −RT lnK) [kcal/mol] | ΔS° ([2]; ΔS° = (ΔH°−ΔG°)/T) [cal/mol/deg] | Kd [3] [µM] | K (binding constant) ([3]; ITC, Y200A) | ΔG° ([3]; Y200A) [kcal/mol] | K (binding constant) ([4]; ITC, 15°C, K91A) | ΔH° ([4]; ITC, K91A) [kcal/mol] | Kd ([4]; Kd, ITC, 15°C, K91A) | ΔG° ([4]; K91A) [kcal/mol] | ΔS° ([4]; K91A) [cal/mol/deg] | Kd [5] [µM] | K (binding constant) [5] | ΔH° [5] [kcal/mol] | ΔG° [5] [kcal/mol] | further results
1 | O=c1[nH]c(=O)n([C@H]2C[C@H](O)[C@@H](CO)O2)cc1O [5-hydroxy-2′-deoxyuridine] |  |  |  |  |  |  |  |  |  |  |  |  |  |  |  |  |  |  |  |  | pKa of the hydroxyl group on the pyrimidine ring [1]: 7.68
2 | Nc1ncnc2c1ncn2[C@@H]1O[C@H](C[S+](CC[C@H](N)C(=O)[O-])CC(=O)O)[C@@H](O)[C@H]1O (stereo partly drawn) [Cx-SAM, carboxy-S-adenosine-L-methionine] | -7.9 ± 0.1 | 2.5 ± 0.2 × 10^6 M^−1 and 2.5 ± 0.2 x 10^6 M^−1 | 0.55 ± 0.06 | -8.44 ± 0.03 | -7.88 ± 0.05 | 1.92 ± 0.21 | -8.4 ± 0.1 | 1.9 ± 0.2 | 1.8 ± 0.3 | 5.5 ± 0.8 × 10^5 M^−1 and 5.5 ± 0.8 x 10^5 M^−1 | -7.6 ± 0.1 | 9.0 ± 1.8 × 10^3 M^−1 and 9.0 ± 1.8 x 10^3 M^−1 | -16.5 ± 1.6 | 111 µM and 110 µM | -5.2 ± 0.1 | −39.3 ± 5.4 | 2.1 ± 0.2 | 4.7 ± 0.3 × 10^5 M^−1 and 4.7 ± 0.3 x 10^5 M^−1 | -8.5 ± 0.1 | -7.5 ± 0.1 | Kd ([2]; ITC, 15°C, read-out: Kd): 0.4 ± 0.03 µM; ΔH° ([3]; ITC, Y200A): -7.3 ± 0.1 kcal/mol; Specificity ratio K(Cx-SAM)/K(SAM) ([3]; Y200A): > 65; Reduction of Cx-SAM binding affinity compared to the wild type ([3]; Y200A vs wild type): 4–5 fold; ΔS° ([3]; ΔS° = (ΔH°−ΔG°)/T, Y200A): 0.8 ± 0.5 cal/mol/deg; Kd ([4]; K1 (macroscopic binding constant), tetrameric K91A, 1 ligand bound): 7.14 µM; Ksite (intrinsic affinity of each site) ([4]; K1=4Ksite, tetrameric K91A): 36000 M⁻¹; ω+ (positive cooperativity factor) ([4]; square model, tetrameric K91A): 23.8; ω- (negative cooperativity factor) ([4]; square model, tetrameric K91A): 0.4; K2 (macroscopic binding constant) ([4]; tetrameric K91A, 2 ligands bound): 6.5 (± 1.4) x 10^10 M^-2; K4 (macroscopic binding constant) ([4]; tetrameric K91A, 4 ligands bound): 1.6 (± 0.5) x 10^20 M^-4; Fitted K2 relative to non-cooperative binding ([4]; vs 6Ksite^2): ~ 8.4 fold; Fitted K4 relative to non-cooperative binding ([4]; vs Ksite^4): ~ 98.5 fold; Reduction of Cx-SAM binding affinity compared to the wild type ([5]; R315A vs wild type): 4–5 fold; ΔS° [5]: −3.5 ± 0.3 cal/mol/deg; Effect on [14CH3]-SAM methylation of tRNA (radioactive signal) [6]: no detectable radioactive signal; Time to detectable cmo5U formation ([7]; 0.1-μM wild-type CmoB, 10-μM Cx-SAM, tRNA from cmoB-defective cells): 9 min; Time to detected cmo5U with both donors present ([7]; 10-μM Cx-SAM and 2-mM SAM): 20 min; cmo5U formation [8]: No significant cmo5U signal was detected
3 | C[S+](CC[C@H](N)C(=O)[O-])C[C@H]1O[C@@H](n2cnc3c(N)ncnc32)[C@H](O)[C@@H]1O (stereo partly drawn) [SAM, reference compound] | -0.6 ± 0.1 | 4.8 ± 2.0 × 10^3 M^−1 and 4.8 ± 2.0 x 10^3 M^−1 | 4.23 ± 0.27 | -4.85 ± 0.24 | -0.62 ± 0.12 | 14.7 ± 0.9 | -4.9 ± 0.2 | 14.7 ± 0.9 | > 119 | N.D.^e (< 8.4 × 10^3) M^−1 | >-5.1 | 9.1 ± 0.2 × 10^4 M^−1 and 9.1 ± 0.2 x 10^4 M^−1 | -6.4 ± 0.1 | 11 ± 0.2 µM | -6.5 ± 0.1 | 0.4 ± 0.1 | 140 ± 7.3 | 7.1 ± 0.4 x 10^3 M^−1 | -11.1 ± 0.2 | -5.1 ± 0.1 | Kd ([2]; Kd, ITC): 210 ± 90 µM; Kd ([2]; Kd, ITC, 15°C): 200 µM and 208 µM; ΔS° [5]: −21.0 ± 0.8 cal/mol/deg; Time to observed mo5U formation ([7]; 2-μM wild-type CmoB, 0.2-mM SAM as alkyl donor): 5 h; Time to detected trace mo5U with both donors present ([7]; 10-μM Cx-SAM and 2-mM SAM): 2 h
4 | B1 |  |  |  |  |  |  |  |  |  |  |  |  |  |  |  |  |  |  |  |  | stoichiometry N [9]: 4
